In patent publication US10543221B2, “Beta-lactamase inhibitors, formulations, and uses thereof” (priority 2016, dated 2020):

Legend:
[1] = biological target: NDM-1 metallo-beta-lactamase (Klebsiella pneumoniae, UniProt C7C422); test: Steady-state kinetic analysis, nitrocefin hydrolysis, NDM-1; type: biochemical; settings: second NDM-1 column of Table 1
VIM-2 = VIM-2 (Escherichia coli, UniProt Q5U7L7); test: Steady-state kinetic analysis, VIM-2; type: biochemical
[2] = tested on: K. pneumoniae strain expressing KPC-2; type: cell-based; settings: single agent; K. pneumoniae ATCC 4683, phenotype KPC-2
Experimental: (§1) MIC Studies. Compounds were tested for synergy with the carbapenem antibiotic, imipenem, against BL21(DE3) E. coli expressing KPC-2. MIC values were determined with the Mueller-Hinton broth microdilution method. To test for inhibitory activity, compounds were dissolved in DMSO and dilutions were carried out using LB broth. Compounds were test at 100 µM with increasing concentrations of imipenem. […] After inoculation, the plates are incubated at 37 C for 24 hours. The MIC of the compounds were then determined visually. […] For Table 3, 16 μg/mL of compounds were tested for synergy with the carbapenem antibiotic, imipenem, against a K. pneumoniae strain expressing KPC-2.

KPC-2 beta-lactamase = KPC-2 beta-lactamase (Klebsiella pneumoniae, UniProt Q9F663); test: Steady-state kinetic analysis, nitrocefin hydrolysis, KPC-2; type: biochemical; settings: nitrocefin substrate
KPC-2 beta-lactamase, sequence (Q9F663 whole entry, looked up): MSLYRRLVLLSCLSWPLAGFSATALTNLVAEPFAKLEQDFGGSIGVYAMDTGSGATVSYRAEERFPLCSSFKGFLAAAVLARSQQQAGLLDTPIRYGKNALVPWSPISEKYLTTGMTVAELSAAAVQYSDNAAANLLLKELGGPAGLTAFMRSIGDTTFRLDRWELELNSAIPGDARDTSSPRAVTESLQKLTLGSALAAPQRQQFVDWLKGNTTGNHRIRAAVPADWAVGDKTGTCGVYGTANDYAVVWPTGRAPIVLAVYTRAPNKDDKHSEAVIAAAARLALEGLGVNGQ
Experimental: Fractions were analyzed by SDS-PAGE.
(§2) Steady-State Kinetic Analysis. Steady-state kinetic parameters were determined by using a Biotek Cytation Multi-Mode Reader. For KPC-2, each assay was performed in 100 mM Tris-HCl pH 7.0, 0.01% Triton X-100 at 37 C. […] Compounds according to Formulas 5-10 were purchased from commercial sources. The last compound was de novo synthesized.

His-tag SHV-2 = His-tag SHV-2 (Escherichia coli, UniProt P0A9Z7)
His-tag SHV-2, sequence (P0A9Z7 22-286 limits assumed): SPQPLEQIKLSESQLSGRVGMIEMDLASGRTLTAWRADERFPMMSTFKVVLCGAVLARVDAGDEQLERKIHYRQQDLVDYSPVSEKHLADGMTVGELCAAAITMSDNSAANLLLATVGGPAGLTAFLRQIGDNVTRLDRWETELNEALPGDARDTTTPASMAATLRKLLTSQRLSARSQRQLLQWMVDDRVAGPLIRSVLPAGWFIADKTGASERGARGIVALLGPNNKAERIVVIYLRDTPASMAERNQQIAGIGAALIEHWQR
Experimental: as §2, with “C. Vmax and Km were determined from initial steady-state velocities from nitrocefin read at a wavelength of 486 nm. The kinetic parameters were obtained using the non-linear portion of the data to the Henri-Michaelis (equation 1) using SigmaPlot 12.5.” for “C.”

[3] = tested on: BL21(DE3) E. coli expressing KPC-2; test: MIC study, synergy with imipenem, broth microdilution, E. coli; type: cell-based; settings: imipenem alone; E. coli BL21(DE3) pET-GST-blaKPC-2; 37 C, 24 hours
Experimental: as §1

NDM-1 metallo-beta-lactamase, sequence (C7C422 whole entry, looked up): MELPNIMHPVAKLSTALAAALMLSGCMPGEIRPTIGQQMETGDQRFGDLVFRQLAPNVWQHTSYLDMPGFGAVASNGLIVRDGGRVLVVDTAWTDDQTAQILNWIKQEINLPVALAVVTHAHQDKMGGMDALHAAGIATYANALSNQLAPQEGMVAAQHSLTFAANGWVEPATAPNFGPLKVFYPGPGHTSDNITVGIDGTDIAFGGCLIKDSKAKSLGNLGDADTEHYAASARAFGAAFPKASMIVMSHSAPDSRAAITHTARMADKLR

What does the source list for `Cc1cc(Br)c2c(CP(=O)(O)O)cc(=O)oc2c1` [Compound 994942]?
Ki [1]: 55 µM; Ki (VIM-2): 1.8 µM

Which Ki (VIM-2) does the source give for `Cn1c(=O)cc(CP(=O)(O)O)c2ccccc21` [Compound 995018] here?
The Ki was 15.6 µM.

How did the MIC [2] turn out when `Cc1cc2oc(=O)cc(CP(=O)(O)O)c2cc1C` [Compound 73043] was run?
Its MIC is greater than 32 µg/mL.

How did the Ki (VIM-2) turn out when `O=c1cc(CP(=O)(O)O)c2ccccc2[nH]1` [Compound 994943] was run?
The Ki was 9.12 µM.

`O=P(O)(O)Cc1cccc2cccnc12` [Compound 995016] was tested. Which Ki (VIM-2) did it give?
Its Ki is 24.3 µM.

How did the Ki (VIM-2) turn out when `O=c1cc(CP(=O)(O)O)c2c(F)cc(F)cc2o1` [Compound 995015] was run?
The Ki was 4.7 µM.

How did the “His-Tag KPC-2 Ki” value (KPC-2 beta-lactamase) turn out when `O=P(O)(O)Cc1cccc2ccc[n+]([O-])c12` [Compound 995019] was run?
The value was “precipitation”.

And the “NDM-1 Ki” value [1]?
The value was “precipitation”.

And the “VIM-2 Ki” value (VIM-2)?
Its value is “precipitation”.

And the “His-tag SHV-2 Ki” value (His-tag SHV-2)?
Its value is “precipitation”.

How did the MIC [3] turn out when `C[C@@H](O)[C@H]1C(=O)N2C(C(=O)O)=C(SCCN=CN)C[C@H]12` [Imipenem, imipenem, reference compound] was run?
The MIC was 4 µg/mL.

What about the MIC [2] of the same compound?
Its MIC is 8 µg/mL.
